# Reference: patent publication US20260325533A1, “CDK INHIBITOR COMPOUNDS” (ALEKSIA THERAPEUTICS, INC., priority 2023, published 2026)
# Read-outs that look alike come from different tables or passages of the source.
# Key:
# CDK1/CCNB1 = CDK1/CCNB1 (Homo sapiens, UniProt P06493); experiment: CDK1 homogeneous time-resolved fluorescence (HTRF) kinase assay; assay type: biochemical; conditions: CDK1/CCNB
# Summary of the method: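 Kinase activity is measured as Lance signal (665 nm, or 665/615 nm ratio) from europium-labelled anti-phospho-Thr37/46 antibody binding ULight-4E-BP1 peptide. Reactions contain 0.5 nM enzyme, 1 mM ATP, 1% DMSO and run 60 min at 23 °C before EDTA quench.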
# CDK2/CCNE1 = CDK2/CCNE1 (Homo sapiens, UniProt P24941); experiment: CDK2 homogeneous time-resolved fluorescence (HTRF) kinase assay; assay type: biochemical; conditions: CDK2/CCNE
# Summary of the method: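 An HTRF format measures CDK2/CCNE1 (3 nM) phosphorylating a 4E-BP1 Thr37/46 peptide at high (1 mM) ATP. Reactions run one hour at 23 °C, then EDTA-quenched and probed with Eu-labelled phospho-specific antibody.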
# [1] = >250 nM marked x, read-out: CDK1/CCNB IC50 >250 nM
# [2] = >250 nM marked x, read-out: CDK2/CCNE IC50 >250 nM
# [3] = 25-250 nM marked x, read-out: CDK2/CCNE IC50 25-250 nM
# Sequence of CDK1/CCNB1 (P06493 whole entry): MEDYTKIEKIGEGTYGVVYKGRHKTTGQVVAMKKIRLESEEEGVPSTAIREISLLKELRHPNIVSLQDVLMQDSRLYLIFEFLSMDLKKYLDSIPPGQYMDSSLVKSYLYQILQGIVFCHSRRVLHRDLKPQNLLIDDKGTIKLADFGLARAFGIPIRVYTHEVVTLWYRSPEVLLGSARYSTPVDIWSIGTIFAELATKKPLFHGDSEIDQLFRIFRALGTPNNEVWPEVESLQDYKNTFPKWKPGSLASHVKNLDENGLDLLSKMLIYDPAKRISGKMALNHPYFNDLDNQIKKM
# Sequence of CDK1/CCNB1 (P14635 whole entry partner): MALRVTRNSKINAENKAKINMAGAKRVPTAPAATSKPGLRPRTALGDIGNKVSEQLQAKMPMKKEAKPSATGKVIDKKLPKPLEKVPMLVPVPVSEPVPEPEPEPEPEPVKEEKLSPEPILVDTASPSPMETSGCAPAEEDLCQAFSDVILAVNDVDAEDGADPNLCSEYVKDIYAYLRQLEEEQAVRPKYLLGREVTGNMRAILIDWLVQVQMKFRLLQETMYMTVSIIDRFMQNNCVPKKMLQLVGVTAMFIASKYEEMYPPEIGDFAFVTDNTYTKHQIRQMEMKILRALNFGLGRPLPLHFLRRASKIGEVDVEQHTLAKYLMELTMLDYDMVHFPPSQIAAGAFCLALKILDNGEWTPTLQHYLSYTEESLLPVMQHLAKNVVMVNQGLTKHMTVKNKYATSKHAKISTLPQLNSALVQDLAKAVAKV
SMILES,IC50 (CDK1/CCNB1; [1]) [nM],IC50 (CDK2/CCNE1; [2]) [nM],IC50 (CDK2/CCNE1; [3]) [nM],"IC50 (CDK1/CCNB1; 25-250 nM marked x, read-out: CDK1/CCNB IC50 25-250 nM) [nM]","IC50 (CDK2/CCNE1; <25 nM, read-out: CDK2/CCNE IC50 <25 nM) [nM]"
"CC(=O)N1CCC(c2nccc3cnc(Nc4ccc(S(C)(=O)=O)cc4)cc23)CC1 [Ex 154, 1-(4-(7-((4-(methylsulfonyl)phenyl)amino)-2,6-naphthyridin-1-yl)piperidin-1-yl)ethan-1-one]",> 250,> 250,–,–,–
"CS(=O)(=O)c1ccc(Nc2cc3c(-c4ccc5c(c4)C4(CC4)C(=O)N5)nccc3cn2)cc1 [Ex 163, 5'-(7-((4-(methylsulfonyl)phenyl)amino)-2,6-naphthyridin-1-yl)spiro[cyclopropane-1,3'-indolin]-2'-one]",> 250,–,25 to 250,–,–
"Cc1c(-c2nccc3cnc(Nc4ccc(S(C)(=O)=O)cc4)cc23)ccc2c1cnn2C1CCOCC1 [Ex 164, 5-(4-methyl-1-(tetrahydro-2H-pyran-4-yl)-1H-indazol-5-yl)-N-(4-(methylsulfonyl)phenyl)-2,6-naphthyridin-3-amine]",> 250,–,25 to 250,–,–
"CS(=O)(=O)c1ccc(Nc2cc3c(C#C[C@H]4CC[C@H](C(N)=O)CC4)nccc3cn2)cc1 [Ex 168, (1r,4r)-4-((7-((4-(methylsulfonyl)phenyl)amino)-2,6-naphthyridin-1-yl)ethynyl)cyclohexane-1-carboxamide]",–,–,–,25 to 250,< 25
"CC(C)N1CCC(c2nccc3cnc(Nc4ccc(S(C)(=O)=O)cc4)cc23)CC1 [Ex 170, 5-(1-isopropylpiperidin-4-yl)-N-(4-(methylsulfonyl)phenyl)-2,6-naphthyridin-3-amine]",> 250,> 250,–,–,–
"C=CCN1CCC(c2nccc3cnc(Nc4ccc(S(C)(=O)=O)cc4)cc23)CC1 [Ex 171, 5-(1-allylpiperidin-4-yl)-N-(4-(methylsulfonyl)phenyl)-2,6-naphthyridin-3-amine]",> 250,> 250,–,–,–
"COc1ccc(CN2CCC(c3nccc4cnc(Nc5ccc(S(C)(=O)=O)cc5)cc34)CC2)cc1 [Ex 173, 5-(1-(4-methoxybenzyl)piperidin-4-yl)-N-(4-(methylsulfonyl)phenyl)-2,6-naphthyridin-3-amine]",> 250,> 250,–,–,–
"CS(=O)(=O)c1ccc(Nc2cc3c(C4CCN(S(C)(=O)=O)CC4)nccc3cn2)cc1 [Ex 175, N-(4-(methylsulfonyl)phenyl)-5-(1-(methylsulfonyl)piperidin-4-yl)-2,6-naphthyridin-3-amine]",> 250,> 250,–,–,–
"CC(C)S(=O)(=O)N1CCC(c2nccc3cnc(Nc4ccc(S(C)(=O)=O)cc4)cc23)CC1 [Ex 176, 5-(1-(isopropylsulfonyl)piperidin-4-yl)-N-(4-(methylsulfonyl)phenyl)-2,6-naphthyridin-3-amine]",> 250,> 250,–,–,–
"CNC(=O)N1CCC(c2nccc3cnc(Nc4ccc(S(C)(=O)=O)cc4)cc23)CC1 [Ex 177, N-methyl-4-(7-((4-(methylsulfonyl)phenyl)amino)-2,6-naphthyridin-1-yl)piperidine-1-carboxamide]",> 250,> 250,–,–,–
"CCCNC(=O)[C@H]1CC[C@H](c2nccc3cnc(Nc4ccc(S(C)(=O)=O)cc4)cc32)CC1 [Ex 180, (1r,4r)-4-(7-((4-(methylsulfonyl)phenyl)amino)-2,6-naphthyridin-1-yl)-N-propylcyclohexane-1-carboxamide]",> 250,–,25 to 250,–,–
"Cc1c(-c2nccc3cnc(Nc4ccc(S(C)(=O)=O)cc4)cc23)ccc2c1cnn2C1CCNCC1 [Ex 182, 5-(4-methyl-1-(piperidin-4-yl)-1H-indazol-5-yl)-N-(4-(methylsulfonyl)phenyl)-2,6-naphthyridin-3-amine]",> 250,–,25 to 250,–,–
"CS(=O)(=O)c1ccc(Nc2cc3c(N4CCCCC4)nc(C=O)cc3cn2)cc1 [Ex 186, 7-((4-(methylsulfonyl)phenyl)amino)-1-(piperidin-1-yl)-2,6-naphthyridine-3-carbaldehyde]",> 250,–,25 to 250,–,–
"C=CS(=O)(=O)c1ccc(Nc2cc3c(N4CC(C#N)C4)nccc3cn2)cc1 [Ex 188, 1-(7-((4-(vinylsulfonyl)phenyl)amino)-2,6-naphthyridin-1-yl)azetidine-3-carbonitrile]",> 250,–,25 to 250,–,–
"Cc1c(-c2nccc3cnc(Nc4ccc(S(C)(=O)=O)cc4)cc23)ccc2c1cnn2CCC#N [Ex 194, 3-(4-methyl-5-(7-((4-(methylsulfonyl)phenyl)amino)-2,6-naphthyridin-1-yl)-1H-indazol-1-yl)propanenitrile]",> 250,–,25 to 250,–,–

# Other lines, results leading:
IC50 (CDK1/CCNB1; [1]) [nM],IC50 (CDK2/CCNE1; [2]) [nM],IC50 (CDK2/CCNE1; [3]) [nM],"IC50 (CDK1/CCNB1; 25-250 nM marked x, read-out: CDK1/CCNB IC50 25-250 nM) [nM]","IC50 (CDK2/CCNE1; <25 nM, read-out: CDK2/CCNE IC50 <25 nM) [nM]",SMILES
> 250,> 250,–,–,–,"C=CC(=O)N1CCC(c2nccc3cnc(Nc4ccc(S(C)(=O)=O)cc4)cc23)CC1 [Ex 155, 1-(4-(7-((4-(methylsulfonyl)phenyl)amino)-2,6-naphthyridin-1-yl)piperidin-1-yl)prop-2-en-1-one]"
> 250,–,25 to 250,–,–,"C=CS(=O)(=O)c1ccc(Nc2cc3c(-c4ccc(O)cc4)nccc3cn2)cc1 [Ex 157, 4-(7-((4-(vinylsulfonyl)phenyl)amino)-2,6-naphthyridin-1-yl)phenol]"
> 250,–,25 to 250,–,–,"Cc1cc2nn(C)cc2cc1-c1nccc2cnc(NC3CCN(S(C)(=O)=O)CC3)cc12 [Ex 159, 5-(2,6-dimethyl-2H-indazol-5-yl)-N-(1-(methylsulfonyl)piperidin-4-yl)-2,6-naphthyridin-3-amine]"
> 250,–,25 to 250,–,–,"C=CS(=O)(=O)c1ccc(Nc2cc3c(-c4cccc(C(F)(F)F)c4)nccc3cn2)cc1 [Ex 160, 5-(3-(trifluoromethyl)phenyl)-N-(4-(vinylsulfonyl)phenyl)-2,6-naphthyridin-3-amine]"
> 250,> 250,–,–,–,"C=CS(=O)(=O)c1ccc(Nc2cc3c(-c4cccc(OC(F)(F)F)c4)nccc3cn2)cc1 [Ex 161, 5-(3-(trifluoromethoxy)phenyl)-N-(4-(vinylsulfonyl)phenyl)-2,6-naphthyridin-3-amine]"
> 250,–,25 to 250,–,–,"Cc1c(-c2nccc3cnc(Nc4ccc(S(C)(=O)=O)cc4)cc23)ccc2nn(C3CCOCC3)cc12 [Ex 165, 5-(4-methyl-2-(tetrahydro-2H-pyran-4-yl)-2H-indazol-5-yl)-N-(4-(methylsulfonyl)phenyl)-2,6-naphthyridin-3-amine]"
> 250,> 250,–,–,–,"CS(=O)(=O)c1ccc(Nc2cc3c(C4CCN(Cc5ccccc5)CC4)nccc3cn2)cc1 [Ex 172, 5-(1-benzylpiperidin-4-yl)-N-(4-(methylsulfonyl)phenyl)-2,6-naphthyridin-3-amine]"
> 250,> 250,–,–,–,"CS(=O)(=O)c1ccc(Nc2cc3c(C4CCN(Cc5cccnc5)CC4)nccc3cn2)cc1 [Ex 174, N-(4-(methylsulfonyl)phenyl)-5-(1-(pyridin-3-ylmethyl)piperidin-4-yl)-2,6-naphthyridin-3-amine]"
> 250,–,25 to 250,–,–,"CNC(=O)[C@H]1CC[C@H](c2nccc3cnc(Nc4ccc(S(C)(=O)=O)cc4)cc32)CC1 [Ex 178, (1r,4r)-N-methyl-4-(7-((4-(methylsulfonyl)phenyl)amino)-2,6-naphthyridin-1-yl)cyclohexane-1-carboxamide]"
> 250,–,25 to 250,–,–,"CCNC(=O)[C@H]1CC[C@H](c2nccc3cnc(Nc4ccc(S(C)(=O)=O)cc4)cc32)CC1 [Ex 179, (1r,4r)-N-ethyl-4-(7-((4-(methylsulfonyl)phenyl)amino)-2,6-naphthyridin-1-yl)cyclohexane-1-carboxamide]"
> 250,> 250,–,–,–,"CC(C)NC(=O)[C@H]1CC[C@H](c2nccc3cnc(Nc4ccc(S(C)(=O)=O)cc4)cc32)CC1 [Ex 181, (1r,4r)-N-isopropyl-4-(7-((4-(methylsulfonyl)phenyl)amino)-2,6-naphthyridin-1-yl)cyclohexane-1-carboxamide]"
> 250,–,25 to 250,–,–,"Cc1c(-c2nccc3cnc(Nc4ccc(S(C)(=O)=O)cc4)cc23)ccc2nn(CC3CNC3)cc12 [Ex 196, 5-(2-(azetidin-3-ylmethyl)-4-methyl-2H-indazol-5-yl)-N-(4-(methylsulfonyl)phenyl)-2,6-naphthyridin-3-amine]"
> 250,–,25 to 250,–,–,"Cc1c(-c2nccc3cnc(Nc4ccc(S(C)(=O)=O)cc4)cc23)ccc2nn(CCC#N)cc12 [Ex 197, 3-(4-methyl-5-(7-((4-(methylsulfonyl)phenyl)amino)-2,6-naphthyridin-1-yl)-2H-indazol-2-yl)propanenitrile]"
> 250,–,25 to 250,–,–,"C=CS(=O)(=O)c1ccc(Nc2cc3c(-c4ccc5[nH]ncc5c4)nccc3cn2)cc1 [Ex 205, 5-(1H-indazol-5-yl)-N-(4-(vinylsulfonyl)phenyl)-2,6-naphthyridin-3-amine]"
> 250,–,25 to 250,–,–,"Cc1c(-c2nccc3cnc(Nc4ccc(S(C)(=O)=O)cc4)cc23)ccc2nn(CCC3CNC3)cc12 [Ex 208, 5-(2-(2-(azetidin-3-yl)ethyl)-4-methyl-2H-indazol-5-yl)-N-(4-(methylsulfonyl)phenyl)-2,6-naphthyridin-3-amine]"
> 250,–,25 to 250,–,–,"C=CS(=O)(=O)c1ccc(Nc2cc3c(-c4cc5cn[nH]c5cc4C)nccc3cn2)cc1 [Ex 209, 5-(6-methyl-1H-indazol-5-yl)-N-(4-(vinylsulfonyl)phenyl)-2,6-naphthyridin-3-amine]"
